Data reported in patent US5126341A, “Anti-inflammatory 1,8-naphthyridin-2-one derivatives” (Kyowa Hakko Kogyo Co., Ltd., priority 1990, dated 1992).
Read-outs that look alike come from different tables or passages of the source.

Assays:
[1] = tested on: carrageenin-induced paw edema; assay: Effect on carrageenin-induced paw edema; assay type: in vivo, male Wistar rats; conditions: po; rat, 100 mg/kg p.o., 1 hour before 1% carrageenin; paw volume 3 hours after injection; read-out: Suppression rate for paw swelling, (a) carrageenin-induced edema
Method: a) Effect on carrageenin-induced paw edema
Male Wistar rats weighing 150 to 160 g (n=3-5) were used in the experiment. After the right hind paw volume was measured with the plethysmograph (TK-101; Unicom Co., Ltd.), the test compound (100 mg/kg) was orally administered. After one hour, 0.1 ml of 1 % carrageenin (λ-carrageenin; PICNIN-A®, Zushi Kagaku Co., Ltd.) was subcutaneously injected into the right hind paw footpad. Three hours after the injection of carrageenin, the right hind paw volume was measured and the swelling rate was determined by the following equation 1. [formula]
Vt: the right hind paw volume measured 3 hours after the injection of carrageenin
Vo: the right hind paw volume measured prior to the injection of carrageenin
The suppression rate was calculated by the following equation 2. [formula]
Swt: the swelling rate of the group administered with the test compound
Swc: the swelling rate of the control group administered with no test compound

[2] = tested on: zymosan-induced paw edema; assay: Effect on zymosan-induced paw edema; assay type: in vivo, male Wistar rats; conditions: rat, 100 mg/kg p.o., 1 hour before 1% zymosan; paw volume 4 hours after injection
Method: b) Effect on zymosan-induced paw edema
(§1) The experiment was carried out in the same manner as in the carrageenin-induced paw edema test except that 1% zymosan (Zymosan A®; Sigma Chemical Co.) was used in place of 1% carrageenin and the right hind paw volume was measured 4 hours after the injection of the edema-inducing substance instead of 3 hours. The swelling rate and the suppression rate were calculated by equation 1 and equation 2, respectively.

male dd-mice = conditions: mouse, in vivo, 10080 min; for Acute toxicity (MLD, Minimum Lethal Dose) i.p.: ip; for Acute toxicity (MLD, Minimum Lethal Dose) p.o.: po
Method: The test compounds were orally or intraperitoneally administered to male dd-mice weighing 20 to 25 g. MLD (Minimum Lethal Dose) was determined by observing the mortality for seven days after the administration.

[3] = tested on: arachidonic acid-induced paw edema; assay: Arachidonic acid-induced paw edema; assay type: in vivo, male Wistar rats; conditions: rat, 100 mg/kg p.o., 1 hour before 0.5% arachidonic acid; paw volume one hour after injection
Method: c) Arachidonic acid-induced paw edema
as §1, with “0.5% arachidonic acid” for “1% zymosan (Zymosan A®; Sigma Chemical Co.)”, “one hour” for “4 hours”

[4] = tested on: Type III allergic reaction-induced pleurisy; assay: Effect on Type III allergic reaction-induced pleurisy; assay type: in vivo, male Wistar rats; conditions: po, 4.5 h, rat, 100 mg/kg p.o., four and a half hours after induction of pleurisy
Method: d) Effect on Type III allergic reaction-induced pleurisy
IgG was purified from rabbit anti-OA serum prepared in advance by the method of Koda et al. [Folia Pharmacol., Japon 66, 237, (1970)] in the following manner.
A saturated solution of ammonium sulfate (half volume of the serum) was added to the anti-OA serum, and the mixture was left for one hour at 4° C. The precipitate was taken by centrifugation (3,000 rpm, 30 min, 4° C.) and dissolved in phosphate buffered saline of Dulbecco. Then, ammonium sulfate fractionation was carried out three times in the same manner as above, whereby a purified IgG fraction was obtained.
Male Wistar rats weighing 225-250 g were pre-bred for several days and fasted overnight prior to the experiment The test compound (100 mg/kg) was orally administered to the animals, and after 30 minutes, IgG of rabbit anti-OA (0.2 ml, 5 mg protein/ml) was injected into the pleural cavity of the animals under anesthesia with ether. Thirty minutes after the injection of IgG, OA (albumin egg grade III; Sigma Chemical Co.) was intravenously injected into the animals as an inducer of pleurisy. After two hours, Evans Blue (25 mg/kg) was intravenously injected, and four and a half hours after the induction of pleurisy, the animals were killed by bleeding.
Then, an exudate in the pleural cavity was obtained, and the volume of the exudate was measured. The pleural cavity was rinsed with 5 ml of physiological saline and the rinsings were added to the exudate. The number of infiltrated cells in the mixture was counted and the volume of the dye in the mixture was determined by the absorption at 625 nm [Agent Actions., 25, 326 (1988)]. The suppression rates for the volume of the exudate, the number of infiltrated cells and the volume of the dye in the pleural cavity were calculated by the following equation 3. [formula]
S.V: the value obtained with the group administered with the test compound and in which pleurisy is induced
N.V: the value obtained with the group in which pleurisy is not induced
P.V: the value obtained with the group administered with no test compound and in which pleurisy is induced

[5] = Evans Blue 25 mg/kg i.v., absorption at 625 nm, read-out: Suppression rate, volume of dye in the exudate
[6] = read-out: Suppression rate, number of infiltrated cells in the exudate
[7] = read-out: Suppression rate, volume of exudate

Structure (SMILES)	inhibition in vivo at 100 mg/kg [1]	Suppression rate for paw swelling, (b) zymosan-induced edema [2]	Acute toxicity (MLD, Minimum Lethal Dose) i.p. (male dd-mice)	Acute toxicity (MLD, Minimum Lethal Dose) p.o. (male dd-mice)	Suppression rate for paw swelling, (c) arachidonic acid-induced edema [3]	inhibition in vivo at 100 mg/kg [4, 5]	inhibition in vivo at 100 mg/kg [4, 6]	inhibition in vivo at 100 mg/kg [4, 7]
O=C(Nc1cccnc1)c1c(O)c2cccnc2n(-c2ccccc2)c1=O [Compound 4, 4-Hydroxy-2-oxo-1-phenyl-N-(3-pyridyl)-1H-1,8-naphthyridine-3-carboxamide]	40%	37.8%	> 100 mg/kg	> 300 mg/kg	34.9%	54.4%	30.5%	75.3%
O=C(Nc1ccncc1)c1c(O)c2cccnc2n(-c2ccccc2)c1=O [Compound 5, 4-Hydroxy-2-oxo-1-phenyl-N-(4-pyridyl)-1H-1,8-naphthyridine-3-carboxamide]	38.5%	38.4%	> 100 mg/kg	300 mg/kg	48.0%	66.5%	58.6%	100%
